Reference: ChEMBL document CHEMBL1201862, “PubChem BioAssay data set” (2004)
Several values for one entry are separate records, joined by “and”; a condition that tells them apart may be missing. Equal values may be shown once.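 Method: 48-hour compound exposure of cells in 96-well plates, five concentrations, linear interpolation of endpoints. GI50 marks 50% less growth.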 Activity calls are given as the source filed them. No stated cut-off is given here; in the data, active = GI50 up to about 1.1 µM and inactive = higher.

What was measured:
Assay in all cases: NCI anticancer screen, dose series, 48 h
[1] = test system: MOLT-4
[2] = test system: DU-145
[3] = test system: CCRF-CEM
[4] = test system: SN12C
[5] = test system: SF-268
[6] = test system: ACHN
[7] = test system: HOP-62
[8] = test system: M14
[9] = test system: SK-OV-3
[10] = test system: 786-0
[11] = test system: MDA-MB-231
[12] = test system: RXF 393
[13] = test system: A498
[14] = test system: NCI-H23
[15] = test system: OVCAR-8
[16] = test system: NCI-H460
[17] = test system: SNB-75
[18] = test system: HCT-15
[19] = test system: PC-3
[20] = test system: SK-MEL-2

| Compound | GI50 [1] | GI50 [2] | GI50 [3] | GI50 [4] | GI50 [5] | GI50 [6] | GI50 [7] | GI50 [8] | GI50 [9] | GI50 [10] | GI50 [11] | GI50 [12] | GI50 [13] | GI50 [14] | GI50 [15] | GI50 [16] | GI50 [17] | GI50 [18] [µM] | GI50 [19] | GI50 [20] |
| --- | --- | --- | --- | --- | --- | --- | --- | --- | --- | --- | --- | --- | --- | --- | --- | --- | --- | --- | --- | --- |
| COCOc1ccc(C(=O)Oc2cccc3c2OC(C)(C)O3)c(OCOC)c1 | 53.2 µM (inactive) | > 100 µM (inactive) | 22.1 µM (inactive) | > 100 µM (inactive) | 35.6 µM (inactive) | > 100 µM (inactive) | > 100 µM (inactive) | 89.1 µM (inactive) | > 100 µM (inactive) | > 100 µM (inactive) | 15.7 µM (inactive) | 78.2 µM (inactive) | > 100 µM (inactive) | < 0.01 µM (active) | > 100 µM (inactive) | 56 µM (inactive) | 74.5 µM (inactive) | 83.4 |  |  |
| COc1cc2c(cc1-c1coc3cc(OCC=C(C)C)ccc3c1=O)OCO2 | 10.9 µM (inactive) | 34.9 µM (inactive) | > 10 µM (inactive) | 27.8 µM (inactive) | 43.4 µM (inactive) | 29.3 µM (inactive) | 29.8 µM (inactive) | 26.8 µM (inactive) | 41.5 µM (inactive) | 19.9 µM (inactive) | 18.5 µM (inactive) |  | 33.4 µM (inactive) | 24.4 µM (inactive) |  | 19.1 µM (inactive) | 31 µM (inactive) | 9.77 | 42.8 µM (inactive) | 48.1 µM (inactive) |
| CC/C(C)=C1\OC(=O)C(C)C(O)C(Cc2cccnc2)NC(=O)C(NC(=O)c2ncccc2O)C(C)OC1=O (centres undefined) | 53.6 µM (inactive) | > 100 µM (inactive) |  | 94 µM (inactive) | 58.3 µM (inactive) | 6.7 µM (inactive) | 51.1 µM (inactive) | 70.6 µM (inactive) | 71.9 µM (inactive) | > 100 µM (inactive) | > 100 µM (inactive) |  | > 100 µM (inactive) | > 100 µM (inactive) | 63.8 µM (inactive) | 63.1 µM (inactive) | 51.6 µM (inactive) | 49.5 | 50 µM (inactive) | > 100 µM (inactive) |
| O=C(Nc1nc2ccc([N+](=O)[O-])cc2s1)c1cc([N+](=O)[O-])ccc1Cl | 3.21 µM (inactive) | 3.75 µM (inactive) |  | 1.52 µM (inactive) | 3.41 µM (inactive) | 3.2 µM (inactive) | 3 µM (inactive) |  | 2.94 µM (inactive) | 2.75 µM (inactive) | 2.55 µM (inactive) | 3.69 µM (inactive) | 2.21 µM (inactive) | 2.3 µM (inactive) | 2.85 µM (inactive) |  | 2.22 µM (inactive) | 1.93 |  |  |
| C#CC(O)/C=C/C(O)CCCC(O)CC#CC(O)C#CCCCCC(O)/C=C/CCCC(=O)CCCCCCCCCCCCCCCC(O)C(O)C#CC(=O)O (centres undefined) | > 25 µM (inactive) | > 25 µM (inactive) | > 25 µM (inactive) | > 25 µM (inactive) | > 25 µM (inactive) | > 25 µM (inactive) | > 25 µM (inactive) | > 25 µM (inactive) | > 25 µM (inactive) | > 25 µM (inactive) | > 25 µM (inactive) | 9.64 µM (inactive) |  | > 25 µM (inactive) | > 25 µM (inactive) | > 25 µM (inactive) | > 25 µM (inactive) | > 25 | > 25 µM (inactive) | > 25 µM (inactive) |
| COc1ccccc1[S+]([O-])Nc1ccccc1 (centres undefined) | 32.2 µM (inactive) | > 100 µM (inactive) | 54.5 µM (inactive) | > 100 µM (inactive) | 16.7 µM (inactive) | 87.7 µM (inactive) | > 100 µM (inactive) |  |  | > 100 µM (inactive) | > 100 µM (inactive) |  |  | > 100 µM (inactive) | > 100 µM (inactive) | 88.1 µM (inactive) |  | 22.8 |  | 34 µM (inactive) |
| Sc1nnc(-c2ccccc2Nc2ccccc2-c2nnc(S)n2-c2ccccc2)n1-c1ccccc1 | 27.2 µM (inactive) | 56.6 µM (inactive) | 32.5 µM (inactive) | 26.5 µM (inactive) | 69.7 µM (inactive) | 38.3 µM (inactive) | 58.5 µM (inactive) | 40.8 µM (inactive) |  | 45 µM (inactive) | 22.7 µM (inactive) | 35.6 µM (inactive) |  | 34.4 µM (inactive) | 72.6 µM (inactive) | 37.1 µM (inactive) | 37.5 µM (inactive) | 34.3 | 60.3 µM (inactive) | 27 µM (inactive) |
| O=C(C[C@@H]1CCCN2CCCC[C@H]12)N1c2ccccc2Sc2ccc(Cl)cc21 | 11.8 µM (inactive) | 14 µM (inactive) | 15 µM (inactive) | 16.7 µM (inactive) | 19.2 µM (inactive) | 14.2 µM (inactive) | 13 µM (inactive) | 4.95 µM (inactive) |  | 11.1 µM (inactive) | 14.7 µM (inactive) | 13.6 µM (inactive) |  | 14.7 µM (inactive) | 19.3 µM (inactive) | 14.7 µM (inactive) | 13.8 µM (inactive) | 15.7 | 13.2 µM (inactive) |  |
| CC1(C)CC(=O)C(=CNC(N)=S)C(=O)C1 | > 100 µM (inactive) | > 100 µM (inactive) | > 100 µM (inactive) | > 100 µM (inactive) | > 100 µM (inactive) | > 100 µM (inactive) | > 100 µM (inactive) | > 100 µM (inactive) | > 100 µM (inactive) | > 100 µM (inactive) | > 100 µM (inactive) | > 100 µM (inactive) |  | > 100 µM (inactive) | > 100 µM (inactive) | > 100 µM (inactive) | > 100 µM (inactive) | > 100 | > 100 µM (inactive) | > 100 µM (inactive) |
| O=C(Cn1cc(-c2ccccc2)nn1)NC1CCCC1 | > 100 µM (inactive) | > 100 µM (inactive) | > 100 µM (inactive) | > 100 µM (inactive) | > 100 µM (inactive) | > 100 µM (inactive) | > 100 µM (inactive) | > 100 µM (inactive) |  | > 100 µM (inactive) | > 100 µM (inactive) |  |  | > 100 µM (inactive) | > 100 µM (inactive) | > 100 µM (inactive) | 56.2 µM (inactive) | > 100 | > 100 µM (inactive) | > 100 µM (inactive) |
| CC1CCC2(C(=O)O)CCC3(C)C(=CCC4C5(C)CCC(O)C(C)(C)C5CCC43C)C2C1C (centres undefined) |  | 9.16 µM (inactive) |  | 10.3 µM (inactive) and 18 µM (inactive) |  |  | 16.5 µM (inactive) and 9.33 µM (inactive) | 2.16 µM (inactive) | 18.2 µM (inactive) and 15.5 µM (inactive) | 4.63 µM (inactive) | 12.5 µM (inactive) | 6.12 µM (inactive) and 11.4 µM (inactive) |  | 18.5 µM (inactive) and 11.9 µM (inactive) | 13.8 µM (inactive) and 8.3 µM (inactive) | 12.4 µM (inactive) |  |  | 15.8 µM (inactive) | 11.2 µM (inactive) and 15.9 µM (inactive) |
| O=C(O)c1ccc(Nc2nc3ccccc3nc2C(=O)O)cc1 | > 100 µM (inactive) | > 100 µM (inactive) | > 100 µM (inactive) | > 100 µM (inactive) | > 100 µM (inactive) | > 100 µM (inactive) | > 100 µM (inactive) | > 100 µM (inactive) | > 100 µM (inactive) | > 100 µM (inactive) | > 100 µM (inactive) |  |  | > 100 µM (inactive) | > 100 µM (inactive) | > 100 µM (inactive) | > 100 µM (inactive) |  |  | > 100 µM (inactive) |
| Cc1ccc(S(=O)(=O)Oc2ccc(OS(=O)(=O)c3ccc(C)cc3)c3c2C(=O)c2ccccc2C3=O)cc1 | > 100 µM (inactive) | > 100 µM (inactive) | > 100 µM (inactive) | > 100 µM (inactive) | > 100 µM (inactive) | > 100 µM (inactive) | 37.8 µM (inactive) | > 100 µM (inactive) | > 100 µM (inactive) | 50.7 µM (inactive) | 66.7 µM (inactive) | 23.6 µM (inactive) |  | > 100 µM (inactive) | > 100 µM (inactive) | > 100 µM (inactive) | 16.8 µM (inactive) | > 100 | > 100 µM (inactive) | > 100 µM (inactive) |
| CC(=O)CCn1c(=S)sc2ccccc21 | > 100 µM (inactive) | > 100 µM (inactive) | 25.6 µM (inactive) | > 100 µM (inactive) | > 100 µM (inactive) | > 100 µM (inactive) | > 100 µM (inactive) | > 100 µM (inactive) | 86.9 µM (inactive) | > 100 µM (inactive) | > 100 µM (inactive) | > 100 µM (inactive) |  | > 100 µM (inactive) | > 100 µM (inactive) | > 100 µM (inactive) | > 100 µM (inactive) | > 100 | > 100 µM (inactive) | > 100 µM (inactive) |
| Cc1ccc(Oc2cc(C)ccc2P(=O)(O)O)cc1 | > 100 µM (inactive) | > 100 µM (inactive) | > 100 µM (inactive) | > 100 µM (inactive) | > 100 µM (inactive) |  | > 100 µM (inactive) | > 100 µM (inactive) | > 100 µM (inactive) | > 100 µM (inactive) | > 100 µM (inactive) | > 100 µM (inactive) |  | > 100 µM (inactive) | > 100 µM (inactive) |  | > 100 µM (inactive) | > 100 | > 100 µM (inactive) | > 100 µM (inactive) |
| N#C[BH2-][n+]1ccc(C(=O)NNC(c2ccccc2)C(F)(F)F)cc1 (centres undefined) | > 100 µM (inactive) | > 100 µM (inactive) | > 100 µM (inactive) | > 100 µM (inactive) | > 100 µM (inactive) | > 100 µM (inactive) | 97.7 µM (inactive) | > 100 µM (inactive) |  | > 100 µM (inactive) | > 100 µM (inactive) |  |  | 31.7 µM (inactive) | > 100 µM (inactive) | > 100 µM (inactive) | > 100 µM (inactive) | > 100 | > 100 µM (inactive) | > 100 µM (inactive) |
